pEC50, pIC50, pKi: −log10 of the molar value.
Key:
Bcl-xL [1] = target: T1, Bcl-xL (Homo sapiens, UniProt Q07817); test: TR-FRET binding assay, competition with F-Bak for Bcl-xL binding site; conditions: GST-Bcl-xL, F-Bak probe
T1 construct: made in house
Experimental: The measurement of competition of compounds of the invention with F-Bak for a Bcl-2 family protein (Bcl-xL) binding site using a Time Resolved Fluorescence Resonance Energy Transfer (TR-FRET) Binding Assay:
(§1) Test compounds were serially diluted in DMSO starting at 50 μM (2× starting concentration; 10% DMSO) and 10 μL transferred into a 384-well plate.
(§2) The samples are then mixed on a shaker for 1 minute then incubated for an additional 2 hours at room temperature. For each assay plate, a probe/antibody and protein/antibody/probe mixture were included as a negative and a positive control, respectively. Fluorescence was measured on the Envision (Perkin Elmer) using a 340/35 nm excitation filter and 520/525 (F-Bak) and 495/510 nm (Tb-labeled anti-his antibody) emission filters. Dissociation constants (Ki) were determined using Wang's equation (see, Wang, Z. X. An exact mathematical expression for describing competitive binding of two different ligands to a protein molecule. FEBS Lett. 1995 360:111-114). The TR-FRET assay can be performed in the presence of varying concentrations of human serum (HS) or fetal bovine serum (FBS).

Bcl-xL [2] = target: T1, Bcl-xL; test: Alpha Screen Bcl-xL binding assay, competition with Bim26-mer; conditions: values listed in the order of Table 1; read-out: Alphascreen results (IC50)
Experimental: The measurement of competition of compounds of the invention with Bim26-mer for a Bcl-2 family protein binding site using an Alpha Screen Bcl-xL Binding Assay:
The BH3 proteins ALPHASCREEN™ assay was used to identify active small molecules Bcl-2 family protein screen. e.g., Bcl-xL, hmMcl-1 screen. To determine an accurate estimation of the IC50, the compounds were routinely tested at starting concentrations, 100 μM and/or 1 μM and serially titrated 3 fold over 11 dilutions.
The beads come in close proximity when the protein and the peptides interact. Donor beads contain a photosensitiser that converts oxygen to an excited form of O2 at an excitation of 680 nm. Energy is transformed from the singlet oxygen and reacts with chemiluminescers on the acceptor bead, resulting in light emission at 520-620 nm. […] With this information, the IC50 of each compound was calculated
GST-Bcl-xL, GST-hmMcl-1 and biotinylated GST proteins were prepared in-house and were stored as stock solutions at −80° C. The biotinylated-Bak, and biotinylated-Bim peptides were purchased from Auspep and were stored as 500 μM stock solutions in 100% DMSO at −80° C. The ALPHASCREEN™ GST (Glutathione-S-Transferase) Detection Kit was obtained from Perkin Elmer Lifesciences (Cat #6760603R). The Proxiplates, white 384 well flat-Bottom plates were purchased from Interpath Services, Melbourne (Cat #784075). The seals to cover the plates were purchased from Proscience. Melbourne (Cat#784075). DMSO was purchased from AnalaR. The 384 deep well plates and the Polypropylene 50 μL, V bottom polypropylene compound plates were purchased from Matrical.
Compounds of the invention were prepared as 10 mM stocks with 100% DMSO on the day prior to performing the assay. […] To achieve a final compound concentration of 1 μM, in a separate matrical plate, 28 μL of 100% DMSO and 2 μL of 10 mM compound was added to a well, mixed well. 2 μL of this solution was taken and added to 38 μL of 100% DMSO. 20 μL of this solution was added to the test matrical plate. Several control compounds were included in the test plates. For the control wells 15 μL 100% DMSO only was added to the appropriate wells of each plate. The compound plates were then serially diluted 2 fold using the MiniTrak. Once titrations were complete, the compound plate was immediately covered with a foil seal to prevent evaporation.
The assay and bead buffers were prepared fresh. Each titrated compound plate was assayed in duplicate. The following volumes were sufficient to run 12 Proxiplates (4 assay plates run in duplicate in each of Bclxl, hmMcl and counter assays)
Protein and Peptide Preparation; and Assay Performance • 1. The assay and bead buffers were used to prepare the acceptor and donor solutions. ALPHASCREEN™ beads are light sensitive and therefore prepared in a darkened room. 2.5 μL of beads were added per 1 mL of buffer. • 2. The volume of protein or peptide to add was calculated using the following formula:
[formula] • C1=Final Concentration of protein/peptide • C2=Stock Concentration of protein/peptide • V1=Total Volume of Acceptor/Donor Solution • V2=Volume of stock protein/Peptide to add to Acceptor/Donor solution • 3. The assay components were prepared as separate Acceptor and Donor Solutions. The Acceptor Solution contained Acceptor heads and target protein, while the Donor Solution contained Donor beads and biotinylated peptide.
• 4. After the solutions were prepared, they were left to incubate for 30 minutes at room temperature to allow the beads to bind to the protein and the peptide. • 5. 50 μL of Bcl-xL solution, 50 μL of hmMcl-1 solution and 50 µL of biotinylated-GST were added into separate deep wells on an assay plate. A control […]. Assay/Bead buffer was added separate well plates (no protein). • 6.

Bcl-2 = target: T2, Bcl-2 (Homo sapiens, UniProt P10415); test: TR-FRET binding assay, competition with F-Bak for Bcl-2 binding site; conditions: GST-Bcl-2, F-Bak probe
T2 construct: made in house
T2 sequence (P10415 whole entry, species assumed): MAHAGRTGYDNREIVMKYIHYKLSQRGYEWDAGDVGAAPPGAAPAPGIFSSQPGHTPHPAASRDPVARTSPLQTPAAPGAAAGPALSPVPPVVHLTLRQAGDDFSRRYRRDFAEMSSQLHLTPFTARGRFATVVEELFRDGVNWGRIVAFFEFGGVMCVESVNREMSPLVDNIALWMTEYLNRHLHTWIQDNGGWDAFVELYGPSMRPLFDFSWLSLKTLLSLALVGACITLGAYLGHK
Experimental: as §1, §2
For comparison, the measurement of the competition of compounds of the invention for other Bcl-2 family protein binding sites (e.g., Bcl-2, Mcl-1) using the TR-FRET binding assay was accomplish by substituting GST-Bcl-xL in the TR-FRET assay with other GST-labeled protein, e.g. GST-Bcl-2, GST-Mcl-1 prepared in-house.
For comparison, data (Ki in micromolar) from the measurement of the competition by certain compounds of the invention (i.e., compounds 1, 28, 38, 63, 71, 75, 80, 81, 92 and 94 in Table 1) with F-Bak for the Bcl-2 binding site using the TR-FRET binding assay are, 1.2, 0.15, 0.01, 0.018, 0.50, 0.272, 0.167, 0.66, 0.23 and 0.000003 respectively.

[3] = system: Mcl-1-/- mouse embryonic fibroblasts (MEF); test: Cell viability assay for Mcl-1-/- mouse embryonic fibroblasts (CellTiter-Glo); type: cell-based; conditions: Fibroblast, 1% Fetal Bovine Serum, read-out: MEF Mcl-1-/- KO cell viability results (EC50)
Text: a. Cell Viability Assay for Mcl-1^−/− Mouse Embryonic Fibroblasts (MEF):
Neutralization of both […] and Mcl-1 anti-apoptotic proteins in normal cells is required before a cell undergoes apoptosis via the downstream Bax/Bak pathway See, Chen. L. et al. Mol. Cell (2005) 17, 393-403; Willis, S. N. et al. Genes Dev. (2005) 19, 1294-1305. A compound that only targets Bcl-xL should not affect normal cells, but could kill certain cancer cells if they rely more on Bcl-xL and less on other anti-apoptotic proteins, e.g. Mcl-1, for survival. To mirror this, compounds of the invention were tested for its effect on survival of wild type (wt) mouse embryo fibroblasts (MEFs), Bax/Bak double knockout (BB DKO) MEFs, MEFs that expressed Noxa, and MEFs that expressed Bad. Noxa specifically neutralizes Mcl-1. […] MEFs that express Noxa mirror cancer cell types that are reliant on Bcl-xL for survival and should be much more sensitive to killing by a Bcl-xL targeting compound than MEFs where both Bcl-xL and Mcl-1 are protective.
In this assay, Mcl-1^(−/−) cells were used to confirm that cell apoptosis in the presence of BH3 mimetic small molecules was due to predominantly Bcl-xL inactivation. This inactivation leaves Bax/Bak unconstrained and results in apoptosis. The […]-GLO Luminescent Cell Viability Assay is a homogeneous method of determining the number of viable cells in culture based on quantitation of the ATP present. The amount of ATP correlates with the presence of metabolically active cells such that following cell lysis the amount of ATP present is proportional to the amount of luminescence measured.
Mcl-1^(−/−) mouse embryonic fibroblasts (MEFs) are an adherent cell line prepared in house. MEFs were grown in Iwaki 75 cm^2 tissue culture flasks (cat #3123-075) with FMA media which consists of: • 89% DME Kelso • 10% heat-inactivated foetal calf serum (FCS) (Hyclone cat #SH30396.03) • 1% 10 mM asparagine (Fluka cat #11149) • 275 μl of a 1:2000 dilution of 2-mercaptoethanol is added to the final 500 ml volume of FMA (Sigma cat #M7522; diluted in MT-PBS)
FMA was stored at 4° C. and used at 37° C. MEFs were cultured in FMA media and harvested in MT-PBS and trypsin. For MEF cell viability assays, cells were seeded separately in plates with 10% FCS-FMA and 1% FCS-FMA. […]
Automated Systems that can be used in this assay include: 1) Multidrop—The MULTIDROP 384 (ThermoLabsystems) dispenser was used to dispense cells aseptically into the assay plates: 2) MiniTrak—The […] system from Perkin Elmer was used for titration of the compound plates; 3) Zymark—The ZYMARK SCICLONE ALH3000 System with 100 nL pintool head was used for compound addition to the cells; 4) EnVision—The ENVISION plate reader was used to measure the viability via the detection of the luminescence. […]

T1 sequence (Q07817 whole entry, species assumed): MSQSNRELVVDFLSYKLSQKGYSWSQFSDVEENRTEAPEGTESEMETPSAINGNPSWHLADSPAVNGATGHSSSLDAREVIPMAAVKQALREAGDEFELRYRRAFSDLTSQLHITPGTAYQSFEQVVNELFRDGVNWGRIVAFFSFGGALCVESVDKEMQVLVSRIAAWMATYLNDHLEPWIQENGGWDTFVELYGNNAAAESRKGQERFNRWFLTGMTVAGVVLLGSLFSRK

Row | Structure (SMILES) | pKi (Bcl-xL [1]) | pIC50 (Bcl-xL [2]) | pKi (Bcl-2) | pEC50 [3]
1 | O=C(O)c1nc(-c2ccc3c(c2)N(C(=O)Nc2nc4ccccc4s2)CCC3)sc1CCCOc1ccc(-n2ncc3cncnc32)cc1 [Example 94, 5-(3-(4-(1H-pyrazolo[3,4-d]pyrimidin-1-yl)phenoxy)propyl)-2-(1-(benzo[d]thiazol-2-ylcarbamoyl)-1,2,3,4-tetrahydroquinolin-7-yl)thiazole-4-carboxylic acid] | 11.52 | 9.30 | 11.52 | 
2 | O=C(O)c1ccc(-c2sc(-c3ccc4c(c3)N(C(=O)Nc3nc5ccccc5s3)CCO4)nc2C(=O)O)cc1 [Example 68, 2-(4-(benzo[d]thiazol-2-ylcarbamoyl)-3,4-dihydro-2H-benzo[b][1,4]oxazin-6-yl)-5-(4-carboxyphenyl)thiazole-4-carboxylic acid] | 6.33 | 6.27 |  | 
3 | O=C(O)c1nc(-c2ccc3c(c2)N(C(=O)Nc2nc4ccccc4s2)CCC3)sc1/C=C/c1ccccc1 [Example 74, (E)-2-(1-(benzo[d]thiazol-2-ylcarbamoyl)-1,2,3,4-tetrahydroquinolin-7-yl)-5-styrythiazole-4-carboxylic acid] |  | 8.52 |  | 7.22
4 | O=C(O)c1nc(-c2ccc3c(c2)N(C(=O)Nc2nc4ccccc4s2)CCC3)sc1Oc1ccccc1 [Example 63, 2-(1-(benzo[d]thiazol-2-ylcarbamoyl)-1,2,3,4-tetrahydroquinolin-7-yl)-5-phenoxythiazole-4-carboxylic acid] | 7.92 | 7.30 | 7.74 | 
5 | COc1ccc(-c2sc(-c3ccc4c(c3)N(C(=O)Nc3nc5ccccc5s3)CCC4)nc2C(=O)O)cc1 [Example 71, 2-(1-(benzo[d]thiazol-2-ylcarbamoyl)-1,2,3,4-tetrahydroquinolin-7-yl)-5-(4-methoxyphenyl)thiazole-4-carboxylic acid] | 8.15 | 7.40 | 6.30 | 
6 | CC(C)Oc1ccc(-c2sc(-c3ccc4c(c3)N(C(=O)Nc3nc5ccccc5s3)CCC4)nc2C(=O)O)cc1F [Example 80, 2-(1-(benzo[d]thiazol-2-ylcarbamoyl)-1,2,3,4-tetrahydroquinolin-7-yl)-5-(3-fluoro-4-isopropoxyphenyl)thiazole-4-carboxylic acid] | 9.15 | 8.22 | 6.78 | 
7 | CCOc1ccc(-c2sc(-c3ccc4c(c3)N(C(=O)Nc3nc5ccccc5s3)CCC4)nc2C(=O)O)cc1 [Example 75, 2-(1-(benzo[d]thiazol-2-ylcarbamoyl)-1,2,3,4-tetrahydroquinolin-7-yl)-5-(4-ethoxyphenyl)thiazole-4-carboxylic acid] | 9.00 | 8.15 | 6.57 | 
8 | COc1ccc(-c2sc(-c3ccc4c(c3)N(C(=O)Nc3nc5ccccc5s3)CCC4)nc2C(=O)N(C)C)cc1 [Example 81, 2-(1-(benzo[d]thiazol-2-ylcarbamoyl)-1,2,3,4-tetrahydroquinolin-7-yl)-5-(4-methoxyphenyl)-N,N-dimethylthiazole-4-carboxamide] | 6.18 | 6.42 | 6.18 | 
9 | O=C(O)c1csc(-c2ccc3c(c2)N(C(=O)Nc2nc4ccccc4s2)CCC3)n1 [Example 1] | 6.71 | 6.44 | 5.92 | 

Source: patent publication US9067928B2 (Genentech, Inc., priority 2008, dated 2015)
